Reference: PMC10385824, “Antiproliferative and Tubulin-Destabilising Effects of 3-(Prop-1-en-2-yl)azetidin-2-Ones and Related Compounds in MCF-7 and MDA-MB-231 Breast Cancer Cells” (Pharmaceuticals, 2023)
Like-named read-outs stand apart in the source and are kept apart here.

Legend:
[1] = system: MDA-MB-435; experiment: NCI-60 SRB screen, melanoma; format: cell-based, human; details: Homo sapiens; MDA-MB-435; five dose 0.01–100 µM, 48 h; read-out: GI50
[2] = system: HCT-2998; experiment: NCI-60 SRB screen, colon cancer; format: cell-based, human; details: Homo sapiens; HCT-2998; five dose 0.01–100 µM, 48 h; read-out: GI50
[3] = system: HCT-116; experiment: NCI-60 SRB screen, colon cancer; format: cell-based, human; details: Homo sapiens; HCT-116; five dose 0.01–100 µM, 48 h; read-out: GI50
[4] = system: HT29; experiment: NCI-60 SRB screen, colon cancer; format: cell-based, human; details: Homo sapiens, HT-29; HT29; five dose 0.01–100 µM, 48 h; read-out: GI50
[5] = system: SK-MEL-28; experiment: NCI-60 SRB screen, melanoma; format: cell-based, human; details: Homo sapiens; SK-MEL-28; five dose 0.01–100 µM, 48 h; read-out: GI50
[6] = system: LOX IMVI; experiment: NCI-60 SRB screen, melanoma; format: cell-based, human; details: Homo sapiens, five dose 0.01–100 µM, 48 h, read-out: GI50
[7] = system: U251; experiment: NCI-60 SRB screen, CNS cancer; format: cell-based, human; details: Homo sapiens, U-251; U251; five dose 0.01–100 µM, 48 h; read-out: GI50
[8] = system: IGROV1; experiment: NCI-60 SRB screen, ovarian cancer; format: cell-based, human; details: Homo sapiens, IGROV-1; IGROV1; five dose 0.01–100 µM, 48 h; read-out: GI50
[9] = system: NCI 60 human cancer cell line panel; experiment: NCI 60 cell line screen (SRB), panel values; details: for IC (TGI (total growth inhibition)): read-out: Mean TGI
[10] = system: MCF-7; experiment: cells; details: Homo sapiens, MCF7, 48 h
[11] = system: UO-31; experiment: NCI-60 SRB screen, renal cancer; format: cell-based, human; details: Homo sapiens; UO-31; five dose 0.01–100 µM, 48 h; read-out: GI50
[12] = system: T-47D; experiment: NCI-60 SRB screen, breast cancer; format: cell-based, human; details: Homo sapiens, T47D; T-47D; five dose 0.01–100 µM, 48 h; read-out: GI50
[13] = system: BT-549; experiment: NCI-60 SRB screen, breast cancer; format: cell-based, human; details: Homo sapiens; BT-549; five dose 0.01–100 µM, 48 h; read-out: GI50
[14] = system: SN12C; experiment: NCI-60 SRB screen, renal cancer; format: cell-based, human; details: Homo sapiens, five dose 0.01–100 µM, 48 h, read-out: GI50
[15] = system: SW-620; experiment: NCI-60 SRB screen, colon cancer; format: cell-based, human; details: Homo sapiens; SW-620; five dose 0.01–100 µM, 48 h; read-out: GI50
[16] = system: OVCAR-3; experiment: NCI-60 SRB screen, ovarian cancer; format: cell-based, human; details: Homo sapiens; OVCAR-3; five dose 0.01–100 µM, 48 h; read-out: GI50
[17] = system: HCT-15; experiment: NCI-60 SRB screen, colon cancer; format: cell-based, human; details: Homo sapiens; HCT-15; five dose 0.01–100 µM, 48 h; read-out: GI50
[18] = system: OVCAR-4; experiment: NCI-60 SRB screen, ovarian cancer; format: cell-based, human; details: Homo sapiens; OVCAR-4; five dose 0.01–100 µM, 48 h; read-out: GI50
[19] = system: A498; experiment: NCI-60 SRB screen, renal cancer; format: cell-based, human; details: Homo sapiens; A498; five dose 0.01–100 µM, 48 h; read-out: GI50
[20] = system: NCI-H552; experiment: NCI-60 SRB screen, non-small cell lung cancer; format: cell-based, human; details: Homo sapiens; NCI-H552; five dose 0.01–100 µM, 48 h; read-out: GI50
[21] = system: SK-OV-3; experiment: NCI-60 SRB screen, ovarian cancer; format: cell-based, human; details: Homo sapiens; SK-OV-3; five dose 0.01–100 µM, 48 h; read-out: GI50
[22] = system: HS 578T; experiment: NCI-60 SRB screen, breast cancer; format: cell-based; details: Homo sapiens; HS 578T; five dose 0.01–100 µM, 48 h; read-out: GI50
[23] = system: RXF 393; experiment: NCI-60 SRB screen, renal cancer; format: cell-based, human; details: Homo sapiens; RXF 393; five dose 0.01–100 µM, 48 h; read-out: GI50
[24] = system: 786-0; experiment: NCI-60 SRB screen, renal cancer; format: cell-based, human; details: Homo sapiens; 786-0; five dose 0.01–100 µM, 48 h; read-out: GI50
[25] = system: A549/ATCC; experiment: NCI-60 SRB screen, non-small cell lung cancer; format: cell-based, human; details: Homo sapiens; A549/ATCC; five dose 0.01–100 µM, 48 h; read-out: GI50
[26] = system: KM12; experiment: NCI-60 SRB screen, colon cancer; format: cell-based, human; details: Homo sapiens; KM12; five dose 0.01–100 µM, 48 h; read-out: GI50
[27] = system: COLO 205; experiment: NCI-60 SRB screen, colon cancer; format: cell-based, human; details: Homo sapiens; COLO 205; five dose 0.01–100 µM, 48 h; read-out: GI50
[28] = system: HOP-92; experiment: NCI-60 SRB screen, non-small cell lung cancer; format: cell-based, human; details: Homo sapiens; HOP-92; five dose 0.01–100 µM, 48 h; read-out: GI50
[29] = system: HOP-62; experiment: NCI-60 SRB screen, non-small cell lung cancer; format: cell-based, human; details: Homo sapiens; HOP-62; five dose 0.01–100 µM, 48 h; read-out: GI50
[30] = system: CCRF-CEM; experiment: NCI-60 SRB screen, leukemia; format: cell-based; details: Homo sapiens, five dose 0.01–100 µM, 48 h, read-out: GI50
[31] = system: RPMI-8226; experiment: NCI-60 SRB screen, leukemia; format: cell-based, human; details: Homo sapiens; RPMI-8226; five dose 0.01–100 µM, 48 h; read-out: GI50
[32] = system: EKVX; experiment: NCI-60 SRB screen, non-small cell lung cancer; format: cell-based, human; details: Homo sapiens, five dose 0.01–100 µM, 48 h, read-out: GI50
[33] = Homo sapiens, 60 cell, read-out: Mean GI50, mean over all NCI 60 cell lines
[34] = Homo sapiens, 60 cell, read-out: Mean LC50

| SMILES | GI50 [1] [nM] | GI50 [2] [nM] | GI50 [3] [nM] | GI50 [4] [nM] | GI50 [6] [nM] | GI50 [7] [nM] | GI50 [8] [nM] | GI50 [9, 33] [nM] | CC50 [9, 34] [nM] | IC (TGI (total growth inhibition)) ([9]; Homo sapiens, 60 cell) [nM] | GI50 [10] [nM] | GI50 [11] [nM] | GI50 [12] [nM] | GI50 [13] [nM] | GI50 [14] [nM] | GI50 [15] [nM] | GI50 [16] [nM] | GI50 [17] [nM] | GI50 [18] [nM] | GI50 [19] [nM] | other results |
| --- | --- | --- | --- | --- | --- | --- | --- | --- | --- | --- | --- | --- | --- | --- | --- | --- | --- | --- | --- | --- | --- |
| C=C(C)C1C(=O)N(c2cc(OC)c(OC)c(OC)c2)C1c1ccc(OC)c(OP(=O)(O)O)c1 (centres unmarked) [15a, 2-Methoxy-5-(4-oxo-3-(prop-1-en-2-yl)-1-(3,4,5-trimethoxyphenyl)azetidin-2-yl)-phenyl dihydrogen phosphate] | 25.9 | 238 | 50.6 | 577 | 42.6 | 39.5 | 62.8 | 138 | 85100 | 43600 | 51.3 | 182 | > 100000 | 59.6 | 192 | 80.7 | 62.4 | 70.7 | 73.9 | 32.4 | GI50 [5]: 83.1 nM; GI50 [20]: 26 nM; GI50 [21]: 79.1 nM; GI50 [22]: 63.1 nM; GI50 [23]: 123 nM; GI50 [24]: 390 nM; GI50 [25]: 59.6 nM; GI50 [26]: 38.1 nM; GI50 [27]: 312 nM; GI50 [28]: 315 nM; GI50 [29]: 105 nM; GI50 [30]: 55.7 nM; GI50 [31]: 105 nM |
| C=C(C)C1C(=O)N(c2cc(OC)c(OC)c(OC)c2)C1c1ccc(OC)cc1 (centres unmarked) [9h, 4-(4-Methoxyphenyl)-1-(3,4,5-trimethoxyphenyl)-3-(prop-1-en-2-yl)azetidin-2-one] | 294 | 30.7 | 31.7 | 35.4 | 38.8 | 36 | 49.9 | < 91.2 | 87100 | 15500 | 36.8 | 505 | 26500 | 32.9 | 50.3 | 42.4 | 25.4 | 40.6 | 39.1 | 24.3 | CC50 ([9]; Homo sapiens, 60 cell, 9 h, read-out: LC50): > 100000 nM; GI50 ([9]; read-out: Mean GI50, mean over all NCI 60 cell lines): 58.9 nM; GI50 [20]: 22.2 nM; GI50 [21]: 38.1 nM; GI50 [22]: 39.1 nM; GI50 [23]: 37.5 nM; GI50 [24]: 44.2 nM; GI50 [25]: 40.8 nM; GI50 [32]: 81.3 nM; GI50 [26]: 34 nM; GI50 [27]: 27.1 nM; GI50 [28]: 71.9 nM; GI50 [29]: 57.6 nM; GI50 [30]: 37.5 nM; GI50 [31]: 39.9 nM |
